Experimental data as given in ChEMBL document CHEMBL5634090, “Design of phenothiazine-based cationic amphiphilic derivatives incorporating arginine residues: Potential membrane-active broad-spectrum antimicrobials combating pathogenic bacteria in vitro and in vivo” (Eur J Med Chem, 2023).
Converted amounts (≈) assume the structure as drawn. The source made the active and inactive calls. No cut-off for these calls is given here.

Assays:
[1] = system: Staphylococcus aureus; assay: Antibacterial activity against methicillin resistant Staphylococcus aureus N315 in presence of 20 umol/L Fe3+ by broth microdilution method; assay type: functional
[2] = system: Klebsiella pneumoniae; assay: Induction of resistance development in Klebsiella pneumoniae ATCC 10031 assessed as fold increase in MIC treated over 20 serial passages by microdilution assay; assay type: functional
[3] = system: Klebsiella pneumoniae; assay: Antibacterial activity against Klebsiella pneumoniae ATCC 14581 in presence of 19 umol/L Zn2+ by broth microdilution method; assay type: functional
[4] = system: Staphylococcus aureus; assay: Antibacterial activity against Staphylococcus aureus ATCC 29213 in presence of 4.5 mmol/L K+ by broth microdilution method; assay type: functional
[5] = system: Staphylococcus aureus; assay: Inhibition of biofilm formation in Staphylococcus aureus ATCC 29213 at 0.39 ug/ml by crystal violet staining assay relative to control; assay type: functional
[6] = system: Pseudomonas aeruginosa; assay: Antibacterial activity against Pseudomonas aeruginosa ATCC 9027 in presence of 4.50 mmol/L K+ by broth microdilution method; assay type: functional
[7] = system: Staphylococcus aureus; assay: Antibacterial activity against Staphylococcus aureus ATCC 29213 in presence of 20 umol/L Fe3+ by broth microdilution method; assay type: functional
[8] = Selectivity index, ratio of CC50 for cytotoxicity against mouse NCTC clone 929 cells to MIC for antibacterial activity against Klebsiella pneumoniae ATCC 10031; assay type: toxicity, cell-based; conditions: read-out: Selectivity Index
[9] = system: Staphylococcus aureus; assay: Antibacterial activity against methicillin resistant Staphylococcus aureus NCTC 10442 in presence of 140 mmol/L Na+ by broth microdilution method; assay type: functional
[10] = system: Klebsiella pneumoniae; assay: Antibiofilm activity against 24 hrs preformed biofilm in Klebsiella pneumoniae ATCC 10031 assessed as reduction in biofilm viability at 12.5 ug/ml relative to control; assay type: functional; conditions: dose 12.5 µg/ml
[11] = Selectivity index, ratio of CC50 for cytotoxicity against mouse NCTC clone 929 cells to MIC for antibacterial activity against methicillin resistant Staphylococcus aureus NCTC 10442; assay type: toxicity, cell-based; conditions: read-out: Selectivity Index
[12] = system: Staphylococcus aureus; assay: Antibacterial activity against methicillin resistant Staphylococcus aureus N315 in presence of 2.5 mmol/L Ca2+ by broth microdilution method; assay type: functional
[13] = system: Klebsiella pneumoniae; assay: Antibacterial activity against Klebsiella pneumoniae ATCC 10031 in presence of 19 umol/L Fe2+ by broth microdilution method; assay type: functional
[14] = system: Klebsiella pneumoniae; assay: Antibacterial activity against Klebsiella pneumoniae ATCC 10031 in presence of 2.5 mmol/L Ca2+ by broth microdilution method; assay type: functional
[15] = system: Klebsiella pneumoniae; assay: Antibacterial activity against Klebsiella pneumoniae ATCC 10031 in presence of 19 umol/L Zn2+ by broth microdilution method; assay type: functional
[16] = system: Staphylococcus aureus; assay: Antibacterial activity against methicillin resistant Staphylococcus aureus N315 in presence of 140 mmol/L Na+ by broth microdilution method; assay type: functional
[17] = system: Escherichia coli; assay: Antibacterial activity against Escherichia coli ATCC 25922 by microbroth dilution assay; assay type: functional
[18] = Selectivity index, ratio of CC50 for cytotoxicity against mouse NCTC clone 929 cells to MIC for antibacterial activity against Staphylococcus aureus ATCC 29213; assay type: toxicity, cell-based; conditions: read-out: Selectivity Index
[19] = system: Klebsiella pneumoniae; assay: Antibacterial activity against Klebsiella pneumoniae ATCC 14581 in presence of 4.5 mmol/L K+ by broth microdilution method; assay type: functional
[20] = Cytotoxicity against HEK293 cells assessed as cell survival rate at 6.25 ug/ml by CCK-8 assay relative to control; assay type: toxicity, cell-based; conditions: human, at 6.25 µg/mL, read-out: Activity
[21] = system: Klebsiella pneumoniae; assay: Antibacterial activity against Klebsiella pneumoniae ATCC 10031 in presence of 1 mmol/L Mg2+ by broth microdilution method; assay type: functional
[22] = system: Staphylococcus aureus; assay: Antibacterial activity against methicillin resistant Staphylococcus aureus N315 by microbroth dilution assay; assay type: functional
[23] = system: Staphylococcus aureus; assay: Antibacterial activity against methicillin resistant Staphylococcus aureus NCTC 10442 in presence of 20 umol/L Fe3+ by broth microdilution method; assay type: functional
[24] = system: Klebsiella pneumoniae; assay: Inhibition of biofilm formation in Klebsiella pneumoniae ATCC 10031 at 6.25 ug/ml by crystal violet staining assay relative to control; assay type: functional
[25] = Selectivity index, ratio of CC50 for cytotoxicity against HEK293 cells to MIC for antibacterial activity against Staphylococcus aureus ATCC 29213; assay type: toxicity, cell-based; conditions: human, read-out: Selectivity Index
[26] = system: Staphylococcus aureus; assay: Antibacterial activity against Staphylococcus aureus ATCC 29213 assessed as loss in membrane integrity at 8 times MIC incubated for 4 hrs by LIVE/DEAD BacLight bacterial viability assay; assay type: functional, organism-based; conditions: Cell membrane
[27] = Selectivity index, ratio of CC50 for cytotoxicity against HEK293 cells to MIC for antibacterial activity against Klebsiella pneumoniae ATCC 10031; assay type: toxicity, cell-based; conditions: human, read-out: Selectivity Index
[28] = system: Klebsiella pneumoniae; assay: Antibacterial activity against Klebsiella pneumoniae ATCC 14581 by microbroth dilution assay; assay type: functional
[29] = system: Pseudomonas aeruginosa; assay: Antibacterial activity against Pseudomonas aeruginosa ATCC 9027 infected in cyclophosphamide immunosuppressed keratitis mouse model assessed as reduction in corneal injury at 10 mg/ml administrated tropically; assay type: functional, organism-based
[30] = system: Staphylococcus aureus; assay: Antibiofilm activity against 24 hrs preformed biofilm in Staphylococcus aureus ATCC 29213 assessed as reduction in biofilm viability at […] ug/ml relative to control; assay type: functional; conditions: dose […] microg/ml; 1.56 ug/mL
[31] = system: Klebsiella pneumoniae; assay: Antibacterial activity against Klebsiella pneumoniae ATCC 10031 in presence of 20 umol/L Fe3+ by broth microdilution method; assay type: functional
[32] = system: Staphylococcus aureus; assay: Antibiofilm activity against 24 hrs preformed biofilm in Staphylococcus aureus ATCC 29213 assessed as reduction in biofilm viability at 0.78 ug/ml relative to control; assay type: functional; conditions: dose 0.78 µg/ml
[33] = system: Staphylococcus aureus; assay: Antibacterial activity against Staphylococcus aureus ATCC 29213 in presence of 20 umol/L Fe2+ by broth microdilution method; assay type: functional
[34] = system: Staphylococcus aureus; assay: Antibiofilm activity against 24 hrs preformed biofilm in Staphylococcus aureus ATCC 29213 assessed as reduction in biofilm viability at 0.39 ug/ml relative to control; assay type: functional; conditions: dose 0.39 µg/ml
[35] = system: Pseudomonas aeruginosa; assay: Antibacterial activity against Pseudomonas aeruginosa ATCC 9027 in presence of 20 umol/L Fe3+ by broth microdilution method; assay type: functional
[36] = system: Escherichia coli; assay: Antibacterial activity against Escherichia coli ATCC 25922 in presence of 4.5 mmol/L K+ by broth microdilution method; assay type: functional
[37] = Cytotoxicity against mouse NCTC clone 929 cells assessed as cell survival rate at 12.5 ug/ml by CCK-8 assay relative to control; assay type: toxicity, cell-based; conditions: NCTC clone 929 (L929) cells, at 12.5 µg/mL, read-out: Activity
[38] = system: Staphylococcus aureus; assay: Antibacterial activity against Staphylococcus aureus ATCC 29213 in presence of 19 umol/L Zn2+ by broth microdilution method; assay type: functional
[39] = Cytotoxicity against HEK293 cells assessed as cell survival rate at 25 ug/ml by CCK-8 assay relative to control; assay type: toxicity, cell-based; conditions: human, at 25 µg/mL, read-out: Activity
[40] = system: Klebsiella pneumoniae; assay: Antibacterial activity against Klebsiella pneumoniae ATCC 10031 assessed as loss in membrane integrity at 8 times MIC incubated for 4 hrs by LIVE/DEAD BacLight bacterial viability assay; assay type: functional, organism-based; conditions: Cell membrane
[41] = Selectivity index, ratio of CC50 for cytotoxicity against HEK293 cells to MIC for antibacterial activity against Pseudomonas aeruginosa ATCC 9027; assay type: toxicity, cell-based; conditions: human, read-out: Selectivity Index

Question: Which results are given for CCCCCCCN1c2ccccc2Sc2ccc(OCC(=O)N[C@@H](CCCNC(=N)N)C(=O)N[C@@H](CCCNC(=N)N)C(N)=O)cc21?
Answer: MIC [1]: 1.56 µg/mL; fold change (FC) [2]: < 4; MIC [3]: 3.12 µg/mL; MIC [4]: 1.56 µg/mL; inhibition at 0.39 µg/mL [5]: 5.85%; MIC [6]: 6.25 µg/mL; MIC [7]: 1.56 µg/mL; selectivity ratio [8]: 8; MIC [9]: 1.56 µg/mL; Activity [10]: 5.88%; selectivity ratio [11]: 8; MIC [12]: 3.12 µg/mL; MIC [13]: 6.25 µg/mL; MIC [14]: 3.12 µg/mL; MIC [15]: 6.25 µg/mL; MIC [16]: 1.56 µg/mL; MIC [17]: 3.12 µg/mL (≈ 4.58 µM); selectivity ratio [18]: 8; MIC [19]: 3.12 µg/mL; viability at 6.25 ug/ml [20]: 87.7%; MIC [21]: 3.12 µg/mL; MIC [22]: 1.56 µg/mL (≈ 2.28 µM); MIC [23]: 1.56 µg/mL; inhibition at 6.25 µg/mL [24]: 90%; selectivity ratio [25]: 8; Activity [26]: Active; selectivity ratio [27]: 8; MIC [28]: 3.12 µg/mL (≈ 4.58 µM); Activity [29]: inactive; Activity [30]: 62.14%; MIC [31]: 6.25 µg/mL; Activity [32]: 91.66%; MIC [33]: 1.56 µg/mL; Activity [34]: 97.35%; MIC [35]: 6.25 µg/mL; MIC [36]: 3.12 µg/mL; viability at 12.5 ug/ml [37]: 70.8%; MIC [38]: 1.56 µg/mL; viability at 25 ug/ml [39]: 74.4%; Activity [40]: Active; selectivity ratio [41]: 8
